Here are results for one compound from patent US9011882B2, “Dimethylarginine dimethylaminohydrolase inhibitors and methods of use thereof” (The Board of Trustees of the Leland Stanford Junior …, priority 2012, dated 2015).

The IC50 is the midpoint of a concentration-inhibition curve. A lower IC50 goes with greater potency.

The test system of data set [1] is mouse alveolar epithelial cell. Nature of the data set: BrdU Cell Proliferation Assay, mouse alveolar epithelial cells. Format: cell-based. As to conditions: mouse cell line, FIG. 25. The text has this: A “vehicle only” sample served as a “no DDAH” control.
Data set [2] deals with human alveolar epithelial cells (A-549). The text has this: (§1) Cytotoxicity of PPIs. […] Mean+/−SEM from Duplicate Experiments. * p<0.05.
For data set [3], the system named is mouse alveolar epithelial (MLE-12) cells.
From the text: as §1

Data set [4] has as its system human alveolar epithelial cells (A-549). Nature of the data set: Apoptosis, Cell Death Detection ELISA, A23187-induced. The class given is cell-based. As to conditions: 1 μM A23187, 24 hours. As to the method:
Apoptosis as measured by mono- and oligo-nucleosome enrichment was determined using Cell Death Detection ELISA^PLUS (Roche). Histone-DNA complex (His-DNA CPx) was included as a control. […] Data shown are Mean+/-SEM from Duplicate Experiments. * p<0.05.

The subject of data set [5] is Lung fibroblasts from patients with IPF. Nature of the data set: Sircol collagen assay, TGF-β stimulated IPF lung fibroblasts. The class given is cell-based, human. The following applies: Omeprazole 50 or 100 μM; L-257 50 μM; A83-01 20 μM; 24 hours. On the procedure: Cells were seeded at 4×10^4 cells/well in a 6-well plate (1.2 mL media per well) and incubated overnight at 37° C./5% CO2. The next day, the conditioned media was aspirated and the cells were rinsed with phosphate-buffered saline (PBS) prior to (fetal bovine) serum starving them for 2 hours followed by 22 hours low serum (0.1% fetal bovine serum; FBS) in order to synchronize them.
On day-3, the cells were stimulated with fully-supplemented media (containing 10% FBS) in the absence or presence of recombinant transforming growth factor-1 (TGF-β1) (at 10 ng/mL final conc) in the presence of a DDAH inhibitor (DDAHi; the proton pump inhibitor (PPI) lansoprazole at a final concentration of 20 μM) or vehicle for 24 hours.
The acid-soluble collagen content in each well was determined in the conditioned media using the Sircol collagen assay (Accurate Chemical and Scientific Corp; CLRS 1000) following the recommended protocol.
The amount of collagen in each well was estimated from a standard curve and the collagen content in each sample was normalized to total cellular protein from the respective well and was expressed as μg collagen per milligram of protein.
Lung fibroblasts were isolated from patients diagnosed with IPF according to International Standards. Isolated fibroblasts were seeded at 6×10^4 and synchronized the following day.
The acid-soluble collagen content was determined using the Sircol collagen assay (Accurate Chemical and Scientific Corp; CLRS 1000) following the recommended protocol.

The target in another data set is human DDAH1 (Homo sapiens (Human), UniProt O94760). Briefly: Fluorimetric CPM assay of DDAH activity (SMTC substrate). The following applies: fresh powders from vendors, vs vehicle. The class given is biochemical. On the procedure:
The activity of human DDAH1 was quantified using fluorimetric assay by incubating the enzyme with an artificial substrate S-methyl-thiocitrulline (SMTC). DDAH metabolizes SMTC into L-citrulline and methanethiol (CH3—SH). The thiol released from the reaction can be monitored fluorimetrically by adding 7-Diethylamino-3-(4-maleimidophenyl)-4-methylcoumarin (CPM).
The activity of human DDAH1 was quantified using fluorimetric assay by incubating the enzyme with an artificial substrate S-methyl-thiocitrulline (SMTC), as described in Example 1. DDAH metabolizes SMTC into L-citrulline and methanethiol (CH3—SH). The thiol released from the reaction can be monitored fluorimetrically by adding 7-Diethylamino-3-(4-maleimidophenyl)-4-methylcoumarin (CPM).
For the secondary assay, a fluorimetric assay that uses SMTC as a substrate was adapted. DDAH metabolizes SMTC into L-citrulline and methanethiol (CH3—SH). In brief, DDAH (30 nM final concentration) was mixed with SMTC (100 μM final concentration), CPM (50 μM final concentration) and screening buffer (containing a final concentration of 0.01% Triton-X100 and 1 mM EDTA). The reaction mix was added to black 384-well plates to validate primary hits that modulate DDAH activity. The release of CH3—SH was monitored fluorimetrically by adding 7-Diethylamino-3-(4-maleimidophenyl)-4-methylcoumarin (CPM) as described in Linsky (Linsky, T. & Fast, W. A continuous, fluorescent, high-throughput assay for human dimethylarginine dimethylaminohydrolase-1. J Biomol Screen 16, 1089-1097 (2011)).

Data set [6] deals with human alveolar epithelial cells (A-549). Briefly: Nitric oxide production, total nitrite (NOx) by Griess reaction. The class given is cell-based. The following applies: 24 hours. As to the method: Total nitrite (NOx) was measured using Griess reaction. Data are Mean±SEM from duplicate experiments. *p<0.05.
(The Griess reaction detects nitrite, a stable product of nitric oxide.)

Data set [7] relates to Human lung epithelial cell line (A-549). Briefly: BrdU Cell Proliferation Assay, human alveolar epithelial cells. Format: cell-based. As to conditions: FIG. 24. On the procedure: Cells were seeded at 5×10^3 cells/well in a 96-well plate (200 μL media per well) & incubated overnight at 37° C./5% CO2. The next day, the conditioned media was aspirated and the cells were PBS-rinsed prior to (fetal bovine) serum starving them for 2 hours followed by 22 hours low serum (0.1% FBS) in order to synchronize them.
On day-3, 2 hours before the end of the 24 hours low serum period, DDAH inhibitors (Proton pump inhibitors; PPIs) were added in a 100 μL solution of 0.1% FBS DMEM. The following DDAH inhibitors were used: Lansoprazole; Esomeprazole; and Rabeprazole. A “vehicle only” sample served as a “no DDAH” control. In addition, Media only (blank control) without cells, and Cells only (background control) were included in the assay. Two hours later, 100 μL of DMEM containing 10% FBS was added to each well in order to serum-stimulate (for 24 hours) the cells and make the total well content to 200 μL. Four hours prior to the end of the 24 hrs, 20 μL of 1:500 diluted Bromodeoxyuridine (BrdU) (diluted in fully-supplemented DMEM) was added to all wells except the “Cells only” control wells.
The incorporation of BrdU into newly synthesized DNA by actively proliferating cells was detected immunochemically using an Antibody directed against BrdU using the recommended protocol and the BrdU Cell Proliferation Assay kit (Millipore; Cat #2750). […]

The target of the next data set is DDAH (Homo sapiens (Human), UniProt O94760). Nature of the data set: Dilution assay for reversibility of DDAH inhibition (fluorometric). Format: biochemical. On the procedure:
In order to understand the mechanism by which PPIs inhibit DDAH activity and to determine whether the inhibition mechanism is reversible, a dilution study was conducted, in which DDAH (at a 100-fold excess to the final concentration used) was pre-incubated with excess PPI (100×, 10× or 1× the IC50 value) and then inhibition of enzymatic activity was determined using a fluorometric assay as described above. For a reversible inhibitor that binds to a single site of an enzyme (1:1 stoichiometry), it is anticipated that inhibition can be saturated.

In data set [8] the test system is human lung epithelial cells (A-549). Briefly: Intracellular ADMA by ELISA in lung epithelial cells. Format: cell-based. As to conditions: Omeprazole at 10, 20, 50 or 100 μM, 24 hours. As to the method:
After 24 hours, ADMA was measured by enzyme-linked immunosorbent assay (ELISA). […] Data are Mean±SEM from duplicate experiments. *p<0.05 compared to vehicle (“Veh”).

SMILES strings stand for the structures.

Sequence of DDAH (O94760 whole entry): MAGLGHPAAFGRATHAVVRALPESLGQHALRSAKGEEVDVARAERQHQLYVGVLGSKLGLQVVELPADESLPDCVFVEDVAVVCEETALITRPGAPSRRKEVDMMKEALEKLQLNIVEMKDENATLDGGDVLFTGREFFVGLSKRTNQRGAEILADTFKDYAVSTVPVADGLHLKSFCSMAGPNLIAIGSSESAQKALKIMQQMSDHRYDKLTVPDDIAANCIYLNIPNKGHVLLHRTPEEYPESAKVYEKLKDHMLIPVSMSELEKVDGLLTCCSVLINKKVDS
Sequence of human DDAH1 (O94760 whole entry): as above

Regarding `COc1ccc2[nH]c([S+]([O-])Cc3ncc(C)c(OC)c3C)nc2c1` (centres unmarked) [Omeprazole], the “incorporation of BrdU” value in data set [1] and in data set [7] was “reduced incorporation of BrdU” throughout. Also, the “concentration up to which not cytotoxic (LDH release)” value in data set [2] is ≥ 300 µM. In data set [3], the “concentration up to which cytotoxicity not observed (LDH release)” value was ≥ 300 µM. Besides, the “level of apoptosis (mono- and oligo-nucleosome enrichment)” value in data set [4] was “reduced the level of apoptosis”. Besides, the “TGF-β induced collagen synthesis” value in data set [5] was “reduced TGF-β induced collagen synthesis”. Moreover, on human DDAH1, the “inhibition of DDAH activity, CPM fluorometric validation” value is “inhibited DDAH activity significantly”. Also, the “levels of nitric oxide (total nitrite, NOx)” value in [6] is given as “reduced the levels of nitric oxide”. In addition, the “reversibility of DDAH inhibition upon dilution” value at DDAH (pre-incubation with 100×, 10× or 1× the IC50 value) is “reversible inhibition of DDAH”. Moreover, the IC50 on DDAH (value given in FIG. 20 legend) was ~60 µM. For the same compound, the “intracellular ADMA” value in data set [8] is “increase in intracellular ADMA”.
